# Assay results taken from paper PMC6143625, “A high throughput screen for next-generation leads targeting malaria parasite transmission” (Nature Communications, 2018).
# How the values were obtained:
# [1] = tested on: P. falciparum stage V male gametocytes (male gamete formation); assay: P. falciparum dual gamete formation assay (Pf DGFA), male readout (exflagellation), 48 h carry-over format; assay type: cell-based, Plasmodium falciparum NF54; details: primary screen, 2 uM, 48 h incubation, single replicate
# Procedure: (§1) P. falciparum NF54 strain (originally isolated from an imported malaria case in the Netherlands in the 1980s; BEI Resources, cat. no. MRA-1000) asexual and sexual stages culture was performed as previously described. Gametocyte cultures were initiated at 1% asexual ring stage parasitaemia and 4% haematocrit in 40 ml final volume. To induce gametocyte production, complete culture medium (CM) (RPMI 1640 supplemented with 25 mM HEPES, 50 µg ml^−1 hypoxanthine, 2 g l^−1 NaHCO3 and 10% pooled human male type A+ serum) was replaced daily for 14 days without fresh erythrocyte addition. Human serum was obtained from Interstate Blood Bank, A^+ serotype; no aspirin 2 h before drawing and no antimalarials 2 weeks before drawing. On day 14 after culture induction, gametocyte production was assessed by thin smear and Giemsa staining, and exflagellation accurately counted in a haemocytometer. Gametocyte cultures with >0.2% exflagellation (compared to total erythrocyte cell number) were deemed acceptable for use in the Pf DGFA. Note, all human biological samples were sourced ethically and their research use was in accord with the terms of the informed consents under an IRB/EC approved protocol.
# (§2) In screening mode, the assay was performed as described in Delves et al.[35] with a mean Z′ factor of 0.56 ± 0.14 (SD) (male) and 0.71 ± 0.17 (SD) (female). Pooled mature gametocyte cultures with the capacity to yield >0.2% exflagellation (of total cells) were diluted in CM to 14 million cells per ml and so that 700,000 cells were dispensed in 50 µl into each well of the warmed 384-well screening plates. Parasites were incubated in the plates with compounds for 48 h in a humidified chamber under 92%N2/5% CO2/3% O2 gas mix before gamete formation was triggered by addition of 10 µl per well ookinete medium (RPMI 1640 supplemented with 25 mM HEPES, 50 µg ml^−1 hypoxanthine, 2 g l^−1 NaHCO3, 100 µM xanthurenic acid) containing 0.5 µg ml^−1 anti-Pfs25 clone 4B7 (BEI Resources, cat. no. MRA-315) conjugated to the fluorophore Cy3 (GE Healthcare), and also by cooling the plate at 4 °C for 4 min and then a further 5 min at 28 °C. Exflagellation was recorded immediately by brightfield microscopy using a Nikon Ti-E widefield microscope at ×4 objective, ×1.5 zoom, recording a 10-frame video time-lapse over 2 s for each well. Afterwards, plates were incubated in the dark at 28 °C for a further 24 h to allow female gametes to maximally express Pfs25 on their surface. Female gamete formation was recorded by single-image fluorescence microscopy using the same microscope and magnification as above. Exflagellation and female gamete formation were quantified by specific algorithms designed with the open-source ICY Image Analysis software.
# (§3) Assay performance statistics, such as signal to background ratio, Z′ and robust 3×SD activity cut-off were calculated using templates in ActivityBase XE (IDBS, Guilford, Surrey, UK). Hit population analysis and visualisation were conducted using Spotfire DecisionSite (Spotfire, Inc., Somerville, Massachusetts). The pIC50 (−log IC50) values were obtained using the ActivityBase XE nonlinear regression function in the full curve analysis bundle. In screening mode, the Pf DGFA achieved a mean Z′ factor of 0.56 ± 0.14 (SD) (male) and 0.71 ± 0.17 (SD) (female).
# [2] = tested on: P. falciparum stage V female gametocytes (female gamete formation); assay: P. falciparum dual gamete formation assay (Pf DGFA), female readout (Pfs25 expression), 48 h carry-over format; assay type: cell-based, Plasmodium falciparum NF54; details: primary screen, 2 uM, 48 h incubation, single replicate
# Procedure: as §1
# as §2, with “Parasites were incubated in the plates with compounds for 48 h in a humidified chamber under” left out
# as §3
SMILES,%Inhibition Male @2uM [1] [%],%Inhibition Female @2uM [2] [%]
NC(=O)c1ccc(N2CCCCC2)c(NC(=O)c2cc(Br)ccc2F)c1 [DDD01080647],<30,45.72
CCc1cnc(CN(C(C)=O)C2CCN(CCS(C)(=O)=O)C2)o1 (stereo not shown) [DDD01081064],46.67,<30
CCOC1CCC2(CCN(C(=O)c3csnn3)CC2)c2ccccc21 (stereo not shown) [DDD01081288],95.81,<30
CS(=O)(=O)N1Cc2ccnn2CC(C(=O)NCc2cccnc2)C1 (stereo not shown) [DDD01081357],43.36,<30
COc1ccc2c(c1)C1(CCNCC1)CC2NC1CC1 (stereo not shown) [DDD01081368],45.77,<30
O=C1CC[C@@H]2[C@@H](CCN2S(=O)(=O)C2CC2)N1CC1CC1 [DDD01081437],31.40,<30
c1c(CN2CCOCC2)nc2n1CCN(CC1CC1)C2 [DDD01081604],36.99,<30
CN(C)[C@@H]1CCN(S(C)(=O)=O)[C@H]1Cc1ccccc1 [DDD01081694],32.12,<30
CCc1cnc(N2CC[C@H]3[C@@H]2CCC(=O)N3c2ccccc2)nc1 [DDD01081766],33.06,<30
CC(C)n1nc(CN2CCCC2=O)c2c1CN(C(=O)c1ccc[nH]1)C2 [DDD01081769],<30,30.49
O=C(c1ccoc1)N1CCOC2(COCCN(CC3CC3)C2)C1 (stereo not shown) [DDD01082156],<30,30.05
CC(C)N(C)Cc1cncc2c1CCN(CC(=O)N(C)C)C2 [DDD01082190],<30,42.20
CC1c2ncc(Cn3cccn3)n2CCN1c1ncccn1 (stereo not shown) [DDD01082239],<30,34.70
CCCN1CCC(c2nc3ccc(-c4cccc(OC)c4)cn3n2)CC1 [DDD01082327],<30,35.67
CCOCC(=O)N1CCc2nc(C)nc(NC(C)C)c2CC1 [DDD01082409],45.90,<30
O=C(NC1CC1)[C@H]1CC[C@@H]2[C@@H](CCN2CCOCc2ccccc2)O1 [DDD01082763],87.75,<30
Cn1cncc1C(=O)N1C[C@@H]2CCN(c3cnccn3)C[C@@H]2C1 [DDD01082777],<30,40.85
O=S(=O)(c1ccccc1)N1CCC2(CCCN2Cc2ccccc2Cl)C1 (stereo not shown) [DDD01083172],37.32,<30
CS(=O)(=O)NCc1nnc2n1CCN(Cc1cccnc1)C2 [DDD01083181],31.87,<30
COc1ccc(CN2CC[C@@H](O)[C@@H]2Cc2cnn(C)c2)cc1 [DDD01083182],38.13,<30
CC1=N[C@@]2(CC[C@@H]3CN(S(=O)(=O)CC(C)C)C[C@@H]32)C(=O)N1CC1CC1 [DDD01083262],<30,94.03
CN(C)C(=O)N1CCCC2(CCN(c3ccsc3)C2=O)C1 (stereo not shown) [DDD01083808],<30,43.49

SMILES,%Inhibition Male @2uM [1] [%],%Inhibition Female @2uM [2] [%]
CN(C)[C@@H]1CCN(C(=O)Cc2cccs2)[C@H]1Cc1ccncc1 [DDD01083822],35.35,<30
O=C(c1ccnnc1)N1C[C@H](OCc2ccccn2)[C@H]2COC[C@H]21 [DDD01084503],<30,32.17
CN(C)CCN1CCN(C)c2nc(-c3ccccc3)ncc2C1=O [DDD01235874],34.25,<30
CC(C)[C@H](NS(C)(=O)=O)C(=O)NCc1cc(-c2ccco2)n[nH]1 [DDD01235905],31.18,<30
CC(C)[C@H](NS(C)(=O)=O)C(=O)NCc1cc(-c2ccccc2)n[nH]1 [DDD01235932],32.71,<30
CC(C)(C)Nc1nc(-c2cccnc2)c(-c2ccnc(NCCO)n2)s1 [DDD01235967],38.85,<30
CCOCC(=O)N1CCC(c2nccn2Cc2cscn2)CC1 [DDD01243474],109.47,<30
O=C(O)CCc1cc2n(n1)CCCN(C(=O)c1ccc(F)cc1F)C2 [DDD01243729],76.28,<30
NCC1CCCN(c2nc(-c3ccccc3)nc3c2CCNCC3)C1 (stereo not shown) [DDD01244614],71.27,30.18
Cn1nnnc1SCCNC(=O)C1CCN(C(=O)C2CC2)CC1 [DDD01244691],73.04,<30
CCC(C(=O)N(C)C)N1CCC(c2nccn2Cc2cscn2)CC1 (stereo not shown) [DDD01244731],126.32,<30
CN(C)c1ccc(C(=O)N2CCCN(C3CCCCC3)CC2)cn1 [DDD01244855],<30,30.12
COC(=O)c1ccc(C(=O)N2CCCC(Nc3ccc(F)cc3)C2)cc1 (stereo not shown) [DDD01244904],109.47,<30
CN(Cc1cnn(C)c1)c1nccc(-c2cc(C(=O)O)ccn2)n1 [DDD01245058],<30,33.22
Cc1nc[nH]c1CN1CCn2nc(CN3Cc4ccccc4C3)cc2C1 [DDD01245298],30.45,<30
COc1cccc2c1OCC(C(=O)N1CCN(CCS(C)(=O)=O)CC1)C2 (stereo not shown) [DDD01245746],56.62,<30
CCNC(=O)[C@@H]1C[C@H](NC(=O)c2cncnc2C)CN1Cc1ccsc1 [DDD01245940],<30,96.27
Cc1cccc(=O)n1CCCNc1nc(N(C)C)nc2c1CCNC2 [DDD01245962],35.31,<30
CN(C)Cc1nnc(C2CCN(c3ncccc3Cl)CC2)n1C1CC1 [DDD01246077],30.72,<30
COCCN(C)CCN1CC2(CCN(C3CCOC3)CC2)OC1=O (stereo not shown) [DDD01246090],126.32,<30
COc1cccc2c1OCC(C(=O)N1Cc3ccccc3C1)C2 (stereo not shown) [DDD01246187],112.07,<30
O=C(c1ccccn1)N1C[C@H]2CC[C@@H](C1)N(C(=O)CCN1CCCC1)C2 [DDD01246765],99.89,<30
